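Method: 48-hour compound exposure of cells in 96-well plates, five concentrations, linear interpolation of endpoints. Abbreviation: GI50, concentration required for 50% inhibition of growth. The concentration for full growth arrest is given as TGI.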
Legend:
Assay in all cases: growth of human tumour cells (NCI), 48 h
UACC-257 melanoma = system: UACC-257 melanoma
SF-268 CNS = system: SF-268 CNS
MCF7 breast = system: MCF7 breast
M14 melanoma = system: M14 melanoma
OVCAR-5 ovarian = system: OVCAR-5 ovarian
HCC-2998 colon = system: HCC-2998 colon
OVCAR-8 ovarian = system: OVCAR-8 ovarian
SK-MEL-28 melanoma = system: SK-MEL-28 melanoma
OVCAR-3 ovarian = system: OVCAR-3 ovarian
SNB-75 CNS = system: SNB-75 CNS

Compound	TGI (UACC-257 melanoma) [µM]	TGI (SF-268 CNS) [µM]	TGI (MCF7 breast) [µM]	TGI (M14 melanoma) [µM]	TGI (OVCAR-5 ovarian) [µM]	TGI (HCC-2998 colon) [µM]	TGI (OVCAR-8 ovarian) [µM]	TGI (SK-MEL-28 melanoma) [µM]	TGI (OVCAR-3 ovarian) [µM]	TGI (SNB-75 CNS) [µM]	GI50 (UACC-257 melanoma) [µM]	GI50 (SF-268 CNS) [µM]	GI50 (MCF7 breast) [µM]	GI50 (M14 melanoma) [µM]	GI50 (OVCAR-5 ovarian) [µM]	GI50 (HCC-2998 colon) [µM]	GI50 (OVCAR-8 ovarian) [µM]	GI50 (SK-MEL-28 melanoma) [µM]	GI50 (OVCAR-3 ovarian) [µM]	GI50 (SNB-75 CNS) [µM]
C/C(=C\c1ccccc1)n1c(=O)cc(C)n1C	> 100	> 100	> 100	> 100	> 100	> 100	> 100	> 100	> 100	> 100										
H-KIFKKFKTIIKKVWRIFGRF-NH2	9.58	5.45	> 100	> 100	4.28	7.68	> 100	5.02	5.01	6.99	2.85	2.08	3.04	2.37	2.1	2.65	3.28	2.21	2.14	2.5

— PubChem BioAssay (NCI)
